Read-outs that look alike come from different tables or passages of the source.
Test system: WT P. aeruginosa PAO1
Assay: Checkerboard combination study / MIC
Format: cell-based, Pseudomonas aeruginosa
Details: for MIC: Pseudomonas aeruginosa; for FICI in the presence of ≤10 μM of 1: antibiotic + compound 1; for FICI in the presence of ≤10 μM of 1 / MIC of Antibiotics in the presence of ≤10 μM of 1 / FICI in the presence of ≤10 μM of 2 / MIC of Antibiotics in the presence of ≤10 μM of 2 / FICI in the presence of ≤10 μM of 3 / MIC of Antibiotics in the presence of ≤10 μM of 3 / FICI with compounds 1-3: WT PAO1; for MIC of Antibiotics in the presence of ≤10 μM of 1: antibiotic + compound 1 ≤10 μM; for FICI in the presence of ≤10 μM of 2: antibiotic + compound 2; for MIC of Antibiotics in the presence of ≤10 μM of 2: antibiotic + compound 2 ≤10 μM; for FICI in the presence of ≤10 μM of 3: antibiotic + compound 3; for MIC of Antibiotics in the presence of ≤10 μM of 3: antibiotic + compound 3 ≤10 μM; for FICI with compounds 1-3: antibiotic + compounds 1-3 at ≤10 μM (≤16 μg/mL)
[1] = PAO1, 18 h, antibiotic alone, WT PAO1 (Table 2), read-out: MIC alone

## COc1c(N2C[C@@H]3CCCN[C@@H]3C2)c(F)cc2c(=O)c(C(=O)O)cn(C3CC3)c12 [Moxifloxacin]
[1]
  MIC: 1 µg/mL
  FICI in the presence of ≤10 μM of 1: 1.00
  MIC of Antibiotics in the presence of ≤10 μM of 1: 1 µg/mL
  FICI in the presence of ≤10 μM of 2: 0.51
  MIC of Antibiotics in the presence of ≤10 μM of 2: 0.5 µg/mL
  FICI in the presence of ≤10 μM of 3: 1.01
  MIC of Antibiotics in the presence of ≤10 μM of 3: 1 µg/mL

## O=C1CN(/N=C/c2ccc([N+](=O)[O-])o2)C(=O)N1 [Nitrofurantoin]
[1]
  MIC: 1020 µg/mL
  FICI in the presence of ≤10 μM of 1: 1.00
  MIC of Antibiotics in the presence of ≤10 μM of 1: 1024 µg/mL
  FICI in the presence of ≤10 μM of 2: 1.00
  MIC of Antibiotics in the presence of ≤10 μM of 2: 1024 µg/mL
  FICI in the presence of ≤10 μM of 3: 1.02
  MIC of Antibiotics in the presence of ≤10 μM of 3: 1024 µg/mL
  FICI with compounds 1-3: 1

## CO[C@@H]1[C@@H](OC(N)=O)[C@@H](O)[C@H](Oc2ccc3c(O)c(NC(=O)c4ccc(O)c(CC=C(C)C)c4)c(=O)oc3c2C)OC1(C)C [Novobiocin]
[1]
  MIC: 512 µg/mL
  FICI in the presence of ≤10 μM of 1: 0.13
  MIC of Antibiotics in the presence of ≤10 μM of 1: 64 µg/mL
  FICI in the presence of ≤10 μM of 2: 0.13
  MIC of Antibiotics in the presence of ≤10 μM of 2: 64 µg/mL
  FICI in the presence of ≤10 μM of 3: 0.08
  MIC of Antibiotics in the presence of ≤10 μM of 3: 32 µg/mL
  FICI with compounds 1-3: 0.08-0.13

## C=C[C@]1(C)C[C@@H](OC(=O)CO)[C@]2(C)[C@H](C)CC[C@]3(CCC(=O)[C@H]32)[C@@H](C)[C@@H]1O [Pleuromutilin]
[1]
  MIC: 512 µg/mL
  FICI in the presence of ≤10 μM of 1: 1.00
  MIC of Antibiotics in the presence of ≤10 μM of 1: 512 µg/mL
  FICI in the presence of ≤10 μM of 2: 1.00
  MIC of Antibiotics in the presence of ≤10 μM of 2: 512 µg/mL
  FICI in the presence of ≤10 μM of 3: 0.25
  MIC of Antibiotics in the presence of ≤10 μM of 3: 128 µg/mL

## CO[C@H]1/C=C/O[C@@]2(C)Oc3c(C)c(O)c4c(O)c(c(/C=N/N5CCN(C)CC5)c(O)c4c3C2=O)NC(=O)/C(C)=C\C=C\[C@H](C)[C@H](O)[C@@H](C)[C@@H](O)[C@@H](C)[C@H](OC(C)=O)[C@@H]1C [Rifampicin]
[1]
  MIC: 16 µg/mL
  FICI in the presence of ≤10 μM of 1: 0.13
  MIC of Antibiotics in the presence of ≤10 μM of 1: 2 µg/mL
  FICI in the presence of ≤10 μM of 2: 0.13
  MIC of Antibiotics in the presence of ≤10 μM of 2: 2 µg/mL
  FICI in the presence of ≤10 μM of 3: 0.25
  MIC of Antibiotics in the presence of ≤10 μM of 3: 4 µg/mL
  FICI with compounds 1-3: 0.13-0.25

## CN(C)c1cc(NC(=O)CNC(C)(C)C)c(O)c2c1C[C@H]1C[C@H]3[C@H](N(C)C)C(O)=C(C(N)=O)C(=O)[C@@]3(O)C(O)=C1C2=O [Tigecycline]
PAO1, read-out: MIC alone
  MIC: 4 µg/mL
  FICI in the presence of ≤10 μM of 1: 0.25
  MIC of Antibiotics in the presence of ≤10 μM of 1: 2 µg/mL
  FICI in the presence of ≤10 μM of 2: 0.50
  MIC of Antibiotics in the presence of ≤10 μM of 2: 2 µg/mL
  FICI in the presence of ≤10 μM of 3: 0.52
  MIC of Antibiotics in the presence of ≤10 μM of 3: 2 µg/mL

## COc1cc(Cc2cnc(N)nc2N)cc(OC)c1OC [Trimethoprim]
[1]
  MIC: 64 µg/mL
  FICI in the presence of ≤10 μM of 1: 0.50
  MIC of Antibiotics in the presence of ≤10 μM of 1: 32 µg/mL
  FICI in the presence of ≤10 μM of 2: 0.50
  MIC of Antibiotics in the presence of ≤10 μM of 2: 32 µg/mL
  FICI in the presence of ≤10 μM of 3: 0.50
  MIC of Antibiotics in the presence of ≤10 μM of 3: 32 µg/mL

## CN[C@H](CC(C)C)C(=O)N[C@H]1C(=O)N[C@@H](CC(N)=O)C(=O)N[C@H]2C(=O)N[C@H]3C(=O)N[C@H](C(=O)N[C@H](C(=O)O)c4cc(O)cc(O)c4-c4cc3ccc4O)[C@H](O)c3ccc(c(Cl)c3)Oc3cc2cc(c3O[C@@H]2O[C@H](CO)[C@@H](O)[C@H](O)[C@H]2O[C@H]2C[C@](C)(N)[C@H](O)[C@H](C)O2)Oc2ccc(cc2Cl)[C@H]1O [Vancomycin]
PAO1, 18 h, read-out: MIC alone
  MIC: 256 µg/mL
  FICI in the presence of ≤10 μM of 1: 0.50
  MIC of Antibiotics in the presence of ≤10 μM of 1: 128 µg/mL
  FICI in the presence of ≤10 μM of 2: 0.26
  MIC of Antibiotics in the presence of ≤10 μM of 2: 64 µg/mL
  FICI in the presence of ≤10 μM of 3: 0.50
  MIC of Antibiotics in the presence of ≤10 μM of 3: 128 µg/mL

Reference: patent US20210290648A1, “Potentiation of B-Lactam Antibiotics and B-Lactam/B-Lactamase Inhibitor Combinations Against Multidrug and Extensively Drug-Resistant Pseudomonas Aeruginosa Using Non-Ribosomal Tobramycin-Cyclam Conjugates” (University of Manitoba, priority 2018, published 2021)
